Where “and” joins values, the source holds several entries; their conditions need not be identical. Equal values may be shown once. Read-outs that look alike come from different tables or passages of the source.
Experiments:
rpoH-lacZ expression = assay type: cell-based, Neisseria gonorrhoeae; conditions: for Plate-6 (Testosterone) Miller units, Mean: lower four plate rows
MtrR = target: T1, MtrR (Neisseria gonorrhoeae, UniProt P39897); test: Isothermal titration calorimetry, ligand binding to MtrR WT; conditions: ITC
T1 construct: Hexa-histidine tag with TEV protease cleavage site (N, cleaved yes); made in house; host or cells: E. coli Rosetta Gami B(DE3) pLysS

FA19-rpoH-lacZ = test: Gonococcal growth in liquid culture (GC broth) with hormones (Fig S7)
N. gonorrhoeae = system: N. gonorrhoeae; design: method as in PMID 816438; conditions: cited from earlier work

T1 sequence (P39897 whole entry): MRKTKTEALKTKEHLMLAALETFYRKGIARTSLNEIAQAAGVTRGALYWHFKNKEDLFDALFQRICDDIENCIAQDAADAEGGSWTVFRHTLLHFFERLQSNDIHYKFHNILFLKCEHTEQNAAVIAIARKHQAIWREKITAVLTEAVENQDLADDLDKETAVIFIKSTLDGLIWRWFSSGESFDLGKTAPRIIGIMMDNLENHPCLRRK

C[C@]12CC[C@H]3[C@@H](CCC4=CC(=O)CC[C@@]43C)[C@@H]1CC[C@@H]2O [Testosterone, testosterone]
β-galactosidase activity, rpoH-lacZ, Mean (rpoH-lacZ expression; strain ΔmtrR + mtrR D171A (pGCC3-mtrR D171A), hormone 50 µM): 57 Miller units | β-galactosidase activity, rpoH-lacZ, Mean (rpoH-lacZ expression; strain ΔmtrR + mtrR WT (pGCC3-mtrR), hormone 6.25 µM): 43 Miller units | β-galactosidase activity, rpoH-lacZ, Mean (rpoH-lacZ expression; strain ΔmtrR + mtrR WT (pGCC3-mtrR), hormone 12.5 µM): 52 Miller units | β-galactosidase activity, rpoH-lacZ, Mean (rpoH-lacZ expression; strain ΔmtrR + mtrR WT (pGCC3-mtrR), hormone 25 µM): 63 Miller units | β-galactosidase activity, rpoH-lacZ, Mean (rpoH-lacZ expression; strain ΔmtrR + mtrR WT (pGCC3-mtrR), hormone 50 µM): 68 Miller units | Plate-6 (Testosterone) Miller units, Mean (rpoH-lacZ expression; testosterone 6.25 µM, plate column 3): 43 Miller units | Plate-6 (Testosterone) Miller units, Mean (rpoH-lacZ expression; testosterone 6.25 µM, plate column 9 (second strain set, columns 7-12)): 64 Miller units | Plate-6 (Testosterone) Miller units, Mean (rpoH-lacZ expression; testosterone 12.5 µM, plate column 4): 52 Miller units | Plate-6 (Testosterone) Miller units, Mean (rpoH-lacZ expression; testosterone 12.5 µM, plate column 10 (second strain set, columns 7-12)): 62 Miller units | Plate-6 (Testosterone) Miller units, Mean (rpoH-lacZ expression; testosterone 25 µM, plate column 5): 63 Miller units | Plate-6 (Testosterone) Miller units, Mean (rpoH-lacZ expression; testosterone 25 µM, plate column 11 (second strain set, columns 7-12)): 65 Miller units | Plate-6 (Testosterone) Miller units, Mean (rpoH-lacZ expression; testosterone 50 µM, plate column 6): 68 Miller units | Plate-6 (Testosterone) Miller units, Mean (rpoH-lacZ expression; testosterone 50 µM, plate column 12 (second strain set, columns 7-12)): 57 Miller units | binding stoichiometry N (ligand per MtrR) (MtrR): ~ 1 | binding stoichiometry N (ligand per MtrR) (MtrR; listed as TES): one molecule of steroid per MtrR monomer | Kd (MtrR; equilibrium dissociation constant (Kd), MtrR WT, 25 °C, 1% MeOH): 2.26 µM and ~2.26 µM | growth curve reading after BLANKING (testosterone run) (FA19-rpoH-lacZ; 0 hr, 0.1 µM): 0.013 | growth curve reading, raw replicates (testosterone run) (FA19-rpoH-lacZ; 0 hr, 0.1 µM): 0.046 | growth curve reading after BLANKING (testosterone run) (FA19-rpoH-lacZ; 0 hr, 1 µM): 0.013 | growth curve reading, raw replicates (testosterone run) (FA19-rpoH-lacZ; 0 hr, 1 µM): 0.046 | growth curve reading after BLANKING (testosterone run) (FA19-rpoH-lacZ; 0 hr, 10 µM): 0.013 | growth curve reading, raw replicates (testosterone run) (FA19-rpoH-lacZ; 0 hr, 10 µM): 0.046 | growth curve reading after BLANKING (testosterone run) (FA19-rpoH-lacZ; 0 hr, 50 µM): 0.013 | growth curve reading, raw replicates (testosterone run) (FA19-rpoH-lacZ; 0 hr, 50 µM): 0.046 | growth curve reading after BLANKING (testosterone run) (FA19-rpoH-lacZ; 0 hr, 100 µM): 0.013 | growth curve reading, raw replicates (testosterone run) (FA19-rpoH-lacZ; 0 hr, 100 µM): 0.046 | growth curve reading after BLANKING (testosterone run) (FA19-rpoH-lacZ; 2 hr, 0.1 µM): 0.048 | growth curve reading, raw replicates (testosterone run) (FA19-rpoH-lacZ; 2 hr, 0.1 µM): 0.082 and 0.080 and 0.081 | growth curve reading after BLANKING (testosterone run) (FA19-rpoH-lacZ; 2 hr, 1 µM): 0.047 | growth curve reading, raw replicates (testosterone run) (FA19-rpoH-lacZ; 2 hr, 1 µM): 0.077 and 0.081 and 0.082 | growth curve reading after BLANKING (testosterone run) (FA19-rpoH-lacZ; 2 hr, 10 µM): 0.047 | growth curve reading, raw replicates (testosterone run) (FA19-rpoH-lacZ; 2 hr, 10 µM): 0.079 and 0.083 | growth curve reading after BLANKING (testosterone run) (FA19-rpoH-lacZ; 2 hr, 50 µM): 0.049 | growth curve reading, raw replicates (testosterone run) (FA19-rpoH-lacZ; 2 hr, 50 µM): 0.083 and 0.081 | growth curve reading after BLANKING (testosterone run) (FA19-rpoH-lacZ; 2 hr, 100 µM): 0.048 | growth curve reading, raw replicates (testosterone run) (FA19-rpoH-lacZ; 2 hr, 100 µM): 0.089 and 0.075 and 0.078 | growth curve reading after BLANKING (testosterone run) (FA19-rpoH-lacZ; 3 hr, 0.1 µM): 0.071 | growth curve reading after BLANKING (testosterone run) (FA19-rpoH-lacZ; 3 hr, 1 µM): 0.076 | growth curve reading after BLANKING (testosterone run) (FA19-rpoH-lacZ; 3 hr, 10 µM): 0.073 | growth curve reading after BLANKING (testosterone run) (FA19-rpoH-lacZ; 3 hr, 50 µM): 0.076 | growth curve reading after BLANKING (testosterone run) (FA19-rpoH-lacZ; 3 hr, 100 µM): 0.077 | growth curve reading, raw replicates (testosterone run) (FA19-rpoH-lacZ; 3 hr, 100 µM): 0.116 | growth curve reading after BLANKING (testosterone run) (FA19-rpoH-lacZ; 4.03 hr, 0.1 µM): 0.095 | growth curve reading, raw replicates (testosterone run) (FA19-rpoH-lacZ; 4.03 hr, 0.1 µM): 0.117 | growth curve reading after BLANKING (testosterone run) (FA19-rpoH-lacZ; 4.03 hr, 1 µM): 0.101 | growth curve reading after BLANKING (testosterone run) (FA19-rpoH-lacZ; 4.03 hr, 10 µM): 0.099 | growth curve reading after BLANKING (testosterone run) (FA19-rpoH-lacZ; 4.03 hr, 50 µM): 0.102 | growth curve reading after BLANKING (testosterone run) (FA19-rpoH-lacZ; 4.03 hr, 100 µM): 0.108 | growth curve reading, raw replicates (testosterone run) (FA19-rpoH-lacZ; 4.03 hr, 100 µM): 0.148 | growth curve reading after BLANKING (testosterone run) (FA19-rpoH-lacZ; 5.03 hr, 0.1 µM): 0.121 | growth curve reading, raw replicates (testosterone run) (FA19-rpoH-lacZ; 5.03 hr, 0.1 µM): 0.160 and 0.163 | growth curve reading after BLANKING (testosterone run) (FA19-rpoH-lacZ; 5.03 hr, 1 µM): 0.127 | growth curve reading, raw replicates (testosterone run) (FA19-rpoH-lacZ; 5.03 hr, 1 µM): 0.163 and 0.161 and 0.157 | growth curve reading after BLANKING (testosterone run) (FA19-rpoH-lacZ; 5.03 hr, 10 µM): 0.125 | growth curve reading, raw replicates (testosterone run) (FA19-rpoH-lacZ; 5.03 hr, 10 µM): 0.164 and 0.157 and 0.153 | growth curve reading after BLANKING (testosterone run) (FA19-rpoH-lacZ; 5.03 hr, 50 µM): 0.130 | growth curve reading, raw replicates (testosterone run) (FA19-rpoH-lacZ; 5.03 hr, 50 µM): 0.161 and 0.162 and 0.165 | growth curve reading after BLANKING (testosterone run) (FA19-rpoH-lacZ; 5.03 hr, 100 µM): 0.139 | growth curve reading, raw replicates (testosterone run) (FA19-rpoH-lacZ; 5.03 hr, 100 µM): 0.174 and 0.161 and 0.181 | growth curve reading after BLANKING (testosterone run) (FA19-rpoH-lacZ; 6.03 hr, 0.1 µM): 0.152 | growth curve reading, raw replicates (testosterone run) (FA19-rpoH-lacZ; 6.03 hr, 0.1 µM): 0.171 and 0.189 and 0.195 | growth curve reading after BLANKING (testosterone run) (FA19-rpoH-lacZ; 6.03 hr, 1 µM): 0.157 | growth curve reading, raw replicates (testosterone run) (FA19-rpoH-lacZ; 6.03 hr, 1 µM): 0.195 and 0.191 and 0.185 | growth curve reading after BLANKING (testosterone run) (FA19-rpoH-lacZ; 6.03 hr, 10 µM): 0.151 | growth curve reading, raw replicates (testosterone run) (FA19-rpoH-lacZ; 6.03 hr, 10 µM): 0.192 and 0.181 and 0.179 | growth curve reading after BLANKING (testosterone run) (FA19-rpoH-lacZ; 6.03 hr, 50 µM): 0.161 | growth curve reading, raw replicates (testosterone run) (FA19-rpoH-lacZ; 6.03 hr, 50 µM): 0.192 and 0.195 | growth curve reading after BLANKING (testosterone run) (FA19-rpoH-lacZ; 6.03 hr, 100 µM): 0.177 | growth curve reading, raw replicates (testosterone run) (FA19-rpoH-lacZ; 6.03 hr, 100 µM): 0.198 | growth curve reading after BLANKING (testosterone run) (FA19-rpoH-lacZ; 7.03 hr, 0.1 µM): 0.177 | growth curve reading, raw replicates (testosterone run) (FA19-rpoH-lacZ; 7.03 hr, 0.1 µM): 0.195 | growth curve reading after BLANKING (testosterone run) (FA19-rpoH-lacZ; 7.03 hr, 1 µM): 0.182 | growth curve reading, raw replicates (testosterone run) (FA19-rpoH-lacZ; 7.03 hr, 1 µM): 0.210 | growth curve reading after BLANKING (testosterone run) (FA19-rpoH-lacZ; 7.03 hr, 10 µM): 0.178 | growth curve reading, raw replicates (testosterone run) (FA19-rpoH-lacZ; 7.03 hr, 10 µM): 0.205 | growth curve reading, raw replicates (testosterone run) (FA19-rpoH-lacZ; 7.03 hr, 100 µM): 0.250 | growth curve reading after BLANKING (testosterone run) (FA19-rpoH-lacZ; 7.3 hr, 100 µM): 0.226 | growth curve reading, raw replicates (testosterone run) (FA19-rpoH-lacZ; 7.3 hr, 100 µM): 0.266 and 0.272 | growth curve reading after BLANKING (testosterone run) (FA19-rpoH-lacZ; […], 0.1 µM): 0.028 | growth curve reading after BLANKING (testosterone run) (FA19-rpoH-lacZ; […], 1 µM): 0.027 | growth curve reading after BLANKING (testosterone run) (FA19-rpoH-lacZ; […], 10 µM): 0.026 | growth curve reading after BLANKING (testosterone run) (FA19-rpoH-lacZ; […], 50 µM): 0.026 | growth curve reading after BLANKING (testosterone run) (FA19-rpoH-lacZ; […], 100 µM): 0.025 | growth inhibition of N. gonorrhoeae (N. gonorrhoeae): arrest N. gonorrhoeae growth
